Format in all cases: cell-based
For one experiment, the system named is IL8. In words: IL-1β stimulated IL8 inhibition assay in PBMC. The note with it: human PBMCs, IL-1β stimulation, compound overnight, IL8 by MSD after 24 hrs; for IC50: read-out: IL1β stim IL8 inhibition IC50; for Emax: read-out: IL1β stim IL8 inhibition Ymax. Put shortly: (§1)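 Seed human PBMC, 2.0×10^6 cells/mL → compound overnight → stimulant (IL-1β, LPS or R848) at per-donor EC50 → 24 hrs → media to MSD for IL6/IL8.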

The target of experiment [1] is T1, IRAK-4 (Homo sapiens, UniProt Q9NWZ3).
T1 sequence (Q9NWZ3 1-460): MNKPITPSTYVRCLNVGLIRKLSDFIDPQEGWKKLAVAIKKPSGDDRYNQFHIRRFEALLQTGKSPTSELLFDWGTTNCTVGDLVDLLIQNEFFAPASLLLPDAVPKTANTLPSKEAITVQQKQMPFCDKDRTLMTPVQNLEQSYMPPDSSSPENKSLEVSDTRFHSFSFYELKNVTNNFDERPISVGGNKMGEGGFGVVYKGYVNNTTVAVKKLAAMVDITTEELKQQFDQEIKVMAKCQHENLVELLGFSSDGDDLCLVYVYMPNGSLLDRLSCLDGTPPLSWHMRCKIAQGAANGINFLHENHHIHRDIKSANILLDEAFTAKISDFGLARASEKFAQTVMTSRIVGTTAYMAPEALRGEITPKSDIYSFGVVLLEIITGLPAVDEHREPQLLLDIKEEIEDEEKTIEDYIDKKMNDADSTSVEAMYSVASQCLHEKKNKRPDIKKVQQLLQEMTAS
In words: IRAK-4 ELISA, OCI-Ly10 degradation. The note with it: treated overnight; for Dmax: OCI-Ly10, OCI-Ly10 cells; for DC50: OCI-Ly10 cells. The arrangement: endogenous in cells. A digest of the protocol: (§2)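 Readout: IRAK-4 protein level in cell lysate, sandwich ELISA. Cells: OCI-Ly10 at 1×10^6/ml or PBMC at 2×10^6/ml, compound added same day, overnight incubation.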
For orientation: An ELISA detects its analyte on a solid surface through an enzyme-linked reagent.

In experiment [2] the test system is IL6. In words: R848 stimulated IL6 inhibition assay in PBMC. The conditions noted are these: PBMC, human PBMCs, R848 stimulation, compound overnight, IL6 by MSD after 24 hrs; for Dmax: Homo sapiens, 24 h, read-out: R848 stim IL6 inhibition Dmax; for IC50: read-out: R848 stim IL6 inhibition IC50. Put shortly:
as §1

The subject of experiment [3] is IL6. In words: IL-1β stimulated IL6 inhibition assay in PBMC. The note with it: PBMC, human PBMCs, IL-1β stimulation, compound overnight, IL6 by MSD after 24 hrs; for IC50: Homo sapiens, 24 h, read-out: IL1β stim IL6 inhibition IC50; for Emax: read-out: IL1β stim IL6 inhibition Ymax. A digest of the protocol:
as §1

Experiment [4] has as its target T1, IRAK-4. In words: IRAK-4 ELISA, PBMC degradation. The arrangement: endogenous in cells; host or cells: PBMC. The conditions noted are these: treated overnight. A digest of the protocol:
as §2

Experiment [5] has as its system IL6. In words: LPS stimulated IL6 inhibition assay in PBMC. The conditions noted are these: Homo sapiens, PBMC, 24 h, human PBMCs, LPS stimulation, compound overnight, IL6 by MSD after 24 hrs; for Dmax: read-out: LPS Stim IL6 inhibition Dmax; for IC50: read-out: LPS stim IL6 inhibition IC50. Put shortly:
as §1

One may read the IC50 as the point on the concentration scale where inhibition reaches its midpoint. A word on the DC50: it is the concentration giving 50% degradation. Low values mean degradation at low concentration, high ones degradation only at high concentration.

Turning to `O=C1CCC(N2C(=O)c3ccc(N4CCC(CN5CCC(n6cc7cc(NC(=O)c8cnn9cccnc89)c(OCC8CC8)cc7n6)CC5)CC4)cc3C2=O)C(=O)N1` (centres unmarked) [Example 165], the IC50 was 10 to 50 nM in the experiment with IL8, 10 to 50 nM in the experiment with IL6 [2], less than 10 nM with IL6 [3] and 10 to 50 nM with IL6 [5]. Moreover, the values for the Emax in the experiment with IL8 and in the experiment on IL6 [3] were 70 to 80% and 80 to 90%, respectively. Also, the Dmax was no less than 90% at IRAK-4 [1], no less than 90% in the experiment on IL6 [2], no less than 90% on IRAK-4 [4] and 70 to 80% with IL6 [5]. For the same molecule, the DC50 was 10 to 50 nM on IRAK-4 [1] and 1 to 5 nM at IRAK-4 [4]. Moreover, at IRAK-4 [4], the “PBMC DC90” value is reported as “A (A represents a DC90 value <10.0 nM)”.
On to `CC(C)Oc1cc2c(cc1NC(=O)c1cnn3cccnc13)CN([C@H]1CC[C@H](N(C)C3CN(c4ccc5c(c4)C(=O)N(C4CCC(=O)NC4=O)C5=O)C3)CC1)C2=O` (some centres unmarked) [Example 313, N-(2-((1r,4r)-4-((1-(2-(2,6-dioxopiperidin-3-yl)-1,3-dioxoisoindolin-5-yl)azetidin-3-yl)(methyl)amino)cyclohexyl)-6-isopropoxy-1-oxoisoindolin-5-yl)pyrazolo[1,5-a]pyrimidine-3-carboxamide], for which the IC50 with IL8 was less than 10 nM; in the experiment with IL6 [2], less than 10 nM; in the experiment with IL6 [3], less than 10 nM; with IL6 [5], 10 to 50 nM. In addition, the Emax in the experiment on IL8 is less than 70%; with IL6 [3], no less than 90%. Besides, the Dmax at IRAK-4 [1] is no less than 90%; with IL6 [2], no less than 90%; on IRAK-4 [4], no less than 90%; with IL6 [5], 80 to 90%. For the same molecule, the values for the DC50 on IRAK-4 [1] and on IRAK-4 [4] were less than 10 nM and less than 1 nM, respectively. For the same molecule, the “PBMC DC90” value on IRAK-4 [4] is recorded as “A (A represents a DC90 value <10.0 nM)”.
With `COc1cc(N2CCC(CN3CCC(N4Cc5cc(NC(=O)c6cnn7cccnc67)c(OC(C)C)cc5C4=O)CC3)CC2)cc2c1C(=O)N(C1CCC(=O)NC1=O)C2` (centres unmarked) [Example 23], the IC50 in the experiment on IL8 was 10 to 50 nM; in the experiment with IL6 [2] it was 10 to 50 nM; in the experiment with IL6 [3] it was less than 10 nM; in the experiment with IL6 [5], 10 to 50 nM. For the same molecule, the Emax was 80 to 90% with IL8 and no less than 90% with IL6 [3]. The Dmax on IRAK-4 [1] is 80 to 90%; with IL6 [2], no less than 90%; at IRAK-4 [4] it was no less than 90%; in the experiment with IL6 [5] it was 70 to 80%. Besides, the figures for the DC50 on IRAK-4 [1] and on IRAK-4 [4] were less than 10 nM and less than 1 nM, respectively. For the same molecule, on IRAK-4 [4], the “PBMC DC90” value is on record as “A (A represents a DC90 value <10.0 nM)”.
Consider `O=C1CCC(N2C(=O)c3ccc(N4CC(F)(CN5CCC(n6cc7cc(NC(=O)c8cnn9cccnc89)c(OCC8CC8)cc7n6)CC5)C4)cc3C2=O)C(=O)N1` (centres unmarked) [Example 161, N-(6-(cyclopropylmethoxy)-2-(1-((1-(2-(2,6-dioxopiperidin-3-yl)-1,3-dioxoisoindolin-5-yl)-3-fluoroazetidin-3-yl)methyl)piperidin-4-yl)-2H-indazol-5-yl)pyrazolo[1,5-a]pyrimidine-3-carboxamide], for which the IC50 in the experiment on IL8 is no less than 100 nM; in the experiment on IL6 [2], 10 to 50 nM; in the experiment on IL6 [3], 10 to 50 nM; in the experiment on IL6 [5] it was 10 to 50 nM. In addition, the Dmax at IRAK-4 [1] was no less than 90%; with IL6 [2], no less than 90%; on IRAK-4 [4] it was no less than 90%; in the experiment on IL6 [5], 70 to 80%. The DC50 at IRAK-4 [1] was in the range of 10 to 50 nM; at IRAK-4 [4], 1 to 5 nM. Also, the Emax in the experiment with IL6 [3] was in the range of 80 to 90%. For the same molecule, on IRAK-4 [4], the “PBMC DC90” value is “B (B represents a DC90 value ≥10.0 nM and <25.0 nM)”.
`CC(C)Oc1cc2c(cc1NC(=O)c1cnn3cccnc13)CN(C1CCN(CC3CCN(c4ccc5c(c4)C(=O)N(C4CCC(=O)NC4=O)C5=O)CC3)CC1)C2=O` (centres unmarked) [Example 1, N-(2-(1-((1-(2-(2,6-dioxopiperidin-3-yl)-1,3-dioxoisoindolin-5-yl)piperidin-4-yl)methyl)piperidin-4-yl)-6-isopropoxy-1-oxoisoindolin-5-yl)pyrazolo[1,5-a]pyrimidine-3-carboxamide]: the IC50 was 10 to 50 nM with IL8, less than 10 nM in the experiment on IL6 [2], less than 10 nM in the experiment with IL6 [3] and less than 10 nM in the experiment with IL6 [5]. Moreover, the Emax in the experiment with IL8 is 70 to 80%; in the experiment with IL6 [3], no less than 90%. Moreover, the Dmax on IRAK-4 [1] is no less than 90%; in the experiment on IL6 [2], no less than 90%; at IRAK-4 [4], no less than 90%; in the experiment on IL6 [5], 80 to 90%. Besides, the DC50 is less than 10 nM at IRAK-4 [1] and less than 1 nM at IRAK-4 [4]. Moreover, the “PBMC DC90” value at IRAK-4 [4] is reported as 1 nM.
`O=C1CCC(N2Cc3cc(N4CCC(CN5CCC(N6Cc7cc(NC(=O)c8cnn9cccnc89)c(N8CCC(N9CCC9)CC8)cc7C6=O)CC5)CC4)ccc3C2=O)C(=O)N1` (centres unmarked) [Example 97]: the IC50 in the experiment on IL8 is 10 to 50 nM; in the experiment with IL6 [2], 10 to 50 nM; with IL6 [3] it was less than 10 nM; in the experiment on IL6 [5], less than 10 nM. The Emax in the experiment on IL8 and in the experiment on IL6 [3] was no less than 90% each time. Moreover, the Dmax on IRAK-4 [1] was no less than 90%; with IL6 [2], no less than 90%; at IRAK-4 [4] it was 80 to 90%; in the experiment with IL6 [5] it was no less than 90%. For the same molecule, the DC50 is less than 10 nM on IRAK-4 [1] and less than 1 nM at IRAK-4 [4]. Moreover, on IRAK-4 [4], the “PBMC DC90” value is “A (A represents a DC90 value <10.0 nM)”.
Turning to `O=C1CCC(N2C(=O)c3ccc(N4CC(CN5CCC(N6Cc7cc(NC(=O)c8cnn9cccnc89)c(N8CCOCC8)cc7C6=O)CC5)C4)cc3C2=O)C(=O)N1` (centres unmarked) [Example 96], in the experiment with IL8, the IC50 is no less than 100 nM and the Emax is less than 70%. Also, at IRAK-4 [1], the Dmax was no less than 90% and the DC50 fell in the range of 10 to 50 nM. Besides, in the experiment on IL6 [3], the IC50 lay within 50 to 100 nM and the Emax is no less than 90%. In addition, at IRAK-4 [4], the DC50 fell in the range of 1 to 5 nM; the Dmax is no less than 90%; the “PBMC DC90” value was “B (B represents a DC90 value ≥10.0 nM and <25.0 nM)”.
In the case of `COc1cc2nn([C@H]3CC[C@H](OC4CN(c5ccc6c(c5)C(=O)N(C5CCC(=O)NC5=O)C6=O)C4)CC3)cc2cc1NC(=O)c1cnn2cccnc12` (some centres unmarked) [Example 212], in the experiment on IL8, the IC50 fell in the range of 50 to 100 nM and the Emax is less than 70%. For the same molecule, on IRAK-4 [1], the Dmax is no less than 90% and the DC50 was less than 10 nM. Besides, in the experiment with IL6 [3], the IC50 fell in the range of 10 to 50 nM and the Emax was in the range of 80 to 90%. For the same molecule, at IRAK-4 [4], the DC50 is less than 1 nM, the Dmax is no less than 90% and the “PBMC DC90” value is recorded as “A (A represents a DC90 value <10.0 nM)”.
With `COc1c(N2CC(CN3CCC(n4cc5cc(NC(=O)c6cnn7cccnc67)c(OCC6CC6)cc5n4)CC3)C2)ccc2c1C(=O)N(C1CCC(=O)NC1=O)C2=O` (centres unmarked) [Example 285, N-(6-(cyclopropylmethoxy)-2-(1-((1-(2-(2,6-dioxopiperidin-3-yl)-4-methoxy-1,3-dioxoisoindolin-5-yl)azetidin-3-yl)methyl)piperidin-4-yl)-2H-indazol-5-yl)pyrazolo[1,5-a]pyrimidine-3-carboxamide], in the experiment with IL8, the IC50 lay in the range of 10 to 50 nM and the Emax was less than 70%. On IRAK-4 [1], this molecule gave a Dmax of no less than 90% and a DC50 of less than 10 nM. Besides, in the experiment on IL6 [3], the IC50 is less than 10 nM and the Emax fell in the range of 80 to 90%. Also, at IRAK-4 [4], the DC50 lay within 1 to 5 nM, the Dmax lay in the range of 80 to 90% and the “PBMC DC90” value is reported as “A (A represents a DC90 value <10.0 nM)”.

The values above are taken from patent US20230099344A1, “COMPOUNDS AND METHODS FOR THE TARGETED DEGRADATION OF IRAK-4” (Arvinas Operations, Inc., priority 2021, published 2023).
